Source: the supplement of paper PMC4932681

Tests used:
BT-474 Tam1 [1] = assay: drug sensitivity score (DSS) (DSS (dimensionless)); higher = more sensitive; extreme values may be limits of the assay; details: 4-OH-tamoxifen in medium 1 µM; 72 h
Description: (§1)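 FIMM FO2B library drugs were tested at 5 concentrations (10,000-fold range) for 72 h, with CellTiter-Glo viability normalised to DMSO and benzethonium chloride controls. The Drug Sensitivity Score (DSS) is computed from the fitted logistic dose-response curve (area-based; 0 = inactive). Resistant lines and the 'in 1µM tamoxifen' arms were tested in 1 µM 4-OH-tamoxifen.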

BT-474 Tam2 [2] = assay: as above; details: 4-OH-tamoxifen in medium 1 µM; 72 h
Description: as §1

BT-474 [3] = assay: as above; details: 72 h
Description: as §1

MCF-7 Tam1 = assay: as above; details: 4-OH-tamoxifen in medium 1 µM; 72 h
Description: as §1

MCF-7 [4] = assay: as above; details: 72 h
Description: as §1

T-47D Tam1 [5] = assay: as above; details: 4-OH-tamoxifen in medium 1 µM; 72 h
Description: as §1

T-47D Tam2 [6] = assay: as above; details: 4-OH-tamoxifen in medium 1 µM; 72 h
Description: as §1

T-47D [7] = assay: as above; details: 72 h
Description: as §1

ZR-75-1 Tam1 [8] = assay: as above; details: 4-OH-tamoxifen in medium 1 µM; 72 h
Description: as §1

ZR-75-1 Tam2 [9] = assay: as above; details: 4-OH-tamoxifen in medium 1 µM; 72 h
Description: as §1

ZR-75-1 [10] = assay: as above; details: 72 h
Description: as §1

BT-474 Tam1 [11] = assay: relative IC50 (midpoint of fitted logistic curve, plateau may be below 50% inhibition; CellTiter-Glo viability); higher = less potent; details: 4-OH-tamoxifen in medium 1 µM; 72 h
Outline: (§2)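 Breast cancer cell lines and their resistant derivatives were seeded into 384-well plates containing library drugs at five concentrations across a 10 000-fold range, with resistant lines kept in medium with 1 μM of the selecting drug. After 72 h at 37 °C, CellTiter-Glo viability was read on a PHERAstar and normalised to vehicle-only and positive controls. Logistic dose–response fits in the Breeze pipeline gave drug sensitivity score, relative IC50 (curve midpoint) and top-dose inhibition.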

BT-474 Tam2 [12] = assay: as above; details: 4-OH-tamoxifen in medium 1 µM; 72 h
Outline: as §2

BT-474 [13] = assay: as above; details: 72 h
Outline: as §2

T-47D Tam1 [14] = assay: as above; details: 4-OH-tamoxifen in medium 1 µM; 72 h
Outline: as §2

T-47D Tam2 [15] = assay: as above; details: 4-OH-tamoxifen in medium 1 µM; 72 h
Outline: as §2

T-47D [16] = assay: as above; details: 72 h
Outline: as §2

ZR-75-1 [17] = assay: as above; details: 72 h
Outline: as §2

MCF-7 [18] = assay: as above; details: 72 h
Outline: as §2

ZR-75-1 Tam2 [19] = assay: as above; details: 4-OH-tamoxifen in medium 1 µM; 72 h
Outline: as §2

ZR-75-1 Tam1 [20] = assay: as above; details: 4-OH-tamoxifen in medium 1 µM; 72 h
Outline: as §2

SMILES | relative IC50 (BT-474 Tam1 [11]) | relative IC50 (BT-474 Tam2 [12]) | relative IC50 (BT-474 [13]; 4-OH-tamoxifen in medium 0 µM) | relative IC50 (BT-474 [13]; 4-OH-tamoxifen in medium 1 µM) | relative IC50 (T-47D Tam1 [14]) | relative IC50 (T-47D Tam2 [15]) | relative IC50 (T-47D [16]; 4-OH-tamoxifen in medium 0 µM) | relative IC50 (T-47D [16]; 4-OH-tamoxifen in medium 1 µM) | relative IC50 (MCF-7 [18]; 4-OH-tamoxifen in medium 0 µM) | relative IC50 (MCF-7 [18]; 4-OH-tamoxifen in medium 1 µM) | drug sensitivity score (BT-474 Tam1 [1]) | drug sensitivity score (BT-474 Tam2 [2]) | drug sensitivity score (BT-474 [3]; 4-OH-tamoxifen in medium 0 µM) | drug sensitivity score (BT-474 [3]; 4-OH-tamoxifen in medium 1 µM) | drug sensitivity score (MCF-7 Tam1) | drug sensitivity score (MCF-7 [4]; 4-OH-tamoxifen in medium 0 µM) | drug sensitivity score (MCF-7 [4]; 4-OH-tamoxifen in medium 1 µM) | drug sensitivity score (T-47D Tam1 [5]) | drug sensitivity score (T-47D Tam2 [6]) | drug sensitivity score (T-47D [7]; 4-OH-tamoxifen in medium 0 µM) | drug sensitivity score (T-47D [7]; 4-OH-tamoxifen in medium 1 µM) | drug sensitivity score (ZR-75-1 Tam1 [8]) | drug sensitivity score (ZR-75-1 Tam2 [9]) | drug sensitivity score (ZR-75-1 [10]; 4-OH-tamoxifen in medium 0 µM) | drug sensitivity score (ZR-75-1 [10]; 4-OH-tamoxifen in medium 1 µM) | relative IC50 (ZR-75-1 [17]; 4-OH-tamoxifen in medium 0 µM) | relative IC50 (ZR-75-1 [17]; 4-OH-tamoxifen in medium 1 µM) | relative IC50 (ZR-75-1 Tam2 [19]) | relative IC50 (ZR-75-1 Tam1 [20])
CN(Cc1cnc2nc(N)nc(N)c2n1)c1ccc(C(=O)N[C@@H](CCC(=O)O)C(=O)O)cc1 [Methotrexate] | > 10000 nM | > 10000 nM | > 10000 nM | > 10000 nM | > 10000 nM | > 10000 nM | > 10000 nM | > 10000 nM | – | – | 0 | 0 | 0 | 0 | 0 | 0.338 | 3.04 | 0 | 0 | 0 | 0 | 1.07 | 0.0419 | 6.76 | 0 | 197 nM | > 10000 nM | – | –
Nc1ccccc1NC(=O)c1ccc(CNc2nccc(-c3cccnc3)n2)cc1 [Mocetotinostat (MGCD0103)] | 2150 nM | 1210 nM | 2060 nM | 1380 nM | 688 nM | 1390 nM | 3290 nM | 3220 nM | 1760 nM | 2000 nM | 7.26 | 8.98 | 5.13 | 9.43 | 0.799 | 6.98 | 4.99 | 6.2 | 3.42 | 4.36 | 4.03 | 2.33 | 2.62 | 1.76 | 1.86 | 2720 nM | – | 1480 nM | –
CC(C)n1cnc2c(NCCc3ccc(O)cc3)nc(-c3csc4ccccc34)nc21 [StemRegenin 1] | 2120 nM | 2830 nM | – | 3380 nM | 3410 nM | 1570 nM | 4120 nM | 3480 nM | 4400 nM | 335 nM | 7.32 | 5.49 | 1.47 | 5.07 | 0.218 | 1.85 | 11.7 | 1.95 | 4.97 | 1.21 | 2.41 | 0.327 | 1.51 | 0 | 0.414 | – | – | – | –
CCS(=O)(=O)c1cccc(-c2cc(C(=O)NC3CCN(C)CC3)c(C)c3[nH]c4ncc(C)cc4c23)c1 [TAK-901] | 371 nM | – | > 1000 nM | 90.5 nM | 138 nM | 93.3 nM | 182 nM | – | – | – | 1.12 | 2.87 | 0 | 3.36 | 0 | 0.354 | 2.84 | 6.67 | 2.96 | 3.25 | 0.53 | 0 | 0 | 0 | 0 | > 1000 nM | > 1000 nM | > 1000 nM | > 1000 nM

Second part, led by results:

relative IC50 (BT-474 Tam1 [11]) | relative IC50 (BT-474 Tam2 [12]) | relative IC50 (BT-474 [13]; 4-OH-tamoxifen in medium 0 µM) | relative IC50 (BT-474 [13]; 4-OH-tamoxifen in medium 1 µM) | relative IC50 (T-47D Tam1 [14]) | relative IC50 (T-47D Tam2 [15]) | relative IC50 (T-47D [16]; 4-OH-tamoxifen in medium 0 µM) | relative IC50 (T-47D [16]; 4-OH-tamoxifen in medium 1 µM) | relative IC50 (MCF-7 [18]; 4-OH-tamoxifen in medium 0 µM) | relative IC50 (MCF-7 [18]; 4-OH-tamoxifen in medium 1 µM) | SMILES | drug sensitivity score (BT-474 Tam1 [1]) | drug sensitivity score (BT-474 Tam2 [2]) | drug sensitivity score (BT-474 [3]; 4-OH-tamoxifen in medium 0 µM) | drug sensitivity score (BT-474 [3]; 4-OH-tamoxifen in medium 1 µM) | drug sensitivity score (MCF-7 Tam1) | drug sensitivity score (MCF-7 [4]; 4-OH-tamoxifen in medium 0 µM) | drug sensitivity score (MCF-7 [4]; 4-OH-tamoxifen in medium 1 µM) | drug sensitivity score (T-47D Tam1 [5]) | drug sensitivity score (T-47D Tam2 [6]) | drug sensitivity score (T-47D [7]; 4-OH-tamoxifen in medium 0 µM) | drug sensitivity score (T-47D [7]; 4-OH-tamoxifen in medium 1 µM) | drug sensitivity score (ZR-75-1 Tam1 [8]) | drug sensitivity score (ZR-75-1 Tam2 [9]) | drug sensitivity score (ZR-75-1 [10]; 4-OH-tamoxifen in medium 0 µM) | drug sensitivity score (ZR-75-1 [10]; 4-OH-tamoxifen in medium 1 µM) | relative IC50 (ZR-75-1 [17]; 4-OH-tamoxifen in medium 0 µM) | relative IC50 (ZR-75-1 [17]; 4-OH-tamoxifen in medium 1 µM) | relative IC50 (ZR-75-1 Tam2 [19]) | relative IC50 (ZR-75-1 Tam1 [20])
– | – | – | – | 3070 nM | 2660 nM | 3040 nM | – | 1750 nM | 1350 nM | Nc1nc2[nH]cnc2c(=S)[nH]1 [Thioguanine] | 0.758 | 0.61 | 0.0001 | 1.03 | 1.96 | 4.8 | 4.57 | 2.75 | 2.48 | 1.83 | 0.681 | 3.48 | 2.86 | 4.81 | 1.76 | 1080 nM | 2690 nM | 1440 nM | 1420 nM
– | 3840 nM | – | 3380 nM | 1840 nM | 3710 nM | 3430 nM | 3710 nM | 1360 nM | 1860 nM | O=C(CCCCCCC(=O)Nc1ccc([C@H]2O[C@@H](CSc3nc(-c4ccccc4)c(-c4ccccc4)o3)C[C@@H](c3ccc(CO)cc3)O2)cc1)NO [Tubacin] | 0.976 | 1.25 | 1.29 | 4.44 | 0.69 | 5.52 | 5.63 | 3.65 | 1.62 | 2.87 | 4.31 | 1.41 | 0.331 | 0.333 | 0.912 | – | – | – | 3350 nM
20.9 nM | 14.2 nM | 2.33 nM | 11.9 nM | 38.5 nM | 26.8 nM | 4.41 nM | 88.1 nM | 24.9 nM | 26.5 nM | CC[C@]1(O)C[C@H]2CN(CCc3c([nH]c4ccccc34)[C@@](C(=O)OC)(c3cc4c(cc3OC)N(C=O)[C@H]3[C@@](O)(C(=O)OC)[C@H](OC(C)=O)[C@]5(CC)C=CCN6CC[C@]43[C@@H]65)C2)C1 [Vincristine] | 30.7 | 30.8 | 21.4 | 31.3 | 0.209 | 19.1 | 16.8 | 19.3 | 17.3 | 13.8 | 6.49 | 7.19 | 8.05 | 17.3 | 10.9 | 3.69 nM | 21.5 nM | 116 nM | –
– | > 10000 nM | > 10000 nM | > 10000 nM | > 10000 nM | > 10000 nM | > 10000 nM | > 10000 nM | > 10000 nM | > 10000 nM | CS(=O)(=O)c1ccc(C(=O)Nc2ccc(Cl)c(-c3ccccn3)c2)c(Cl)c1 [Vismodegib] | 0.264 | 0 | 0 | 0 | 0 | 0 | 0 | 0 | 0 | 0 | 0 | 0 | 0 | 0 | 0 | > 10000 nM | > 10000 nM | – | > 10000 nM
